Test results as given in patent US7683051B2, “Crystalline polymorph of bazedoxifene acetate” (Wyeth, priority 2004, dated 2010).
≈ marks a conversion by molar mass, not a printed value.

Key:
[1] = acetic acid
physchem = details: EtOH/EtOAc/Tol, organic solvent or mixture, Solubility-Org (EtOH/EtOAc/Tol)
[2] = acetic acid; remark: listed apart in the source
uterine response = details: preclinical models of uterine stimulation; cited from earlier work
[3] = tested on: MCF-7 cell line (human breast cancer cell line); details: MCF-7 human breast cancer cell line; cited from earlier work
[4] = tested on: ovariectomized rat model of osteopenia; details: cited from earlier work

Solubility-Water [1] [mg/mL]	solubility (physchem) [mg/mL]	Solubility-Org (EtOH/EtOAc/Tol) [2] [mg/mL]	Compound	stimulation of uterine response (uterine response)	estrogen agonist/antagonist behaviour in MCF-7 cells [3]	effect on bone loss [4]	effect on cholesterol [4]
0.49 (≈ 1.04 mM)	24.5 (≈ 52.1 mM)	–	Cc1c(-c2ccc(O)cc2)n(Cc2ccc(OCCN3CCCCCC3)cc2)c2ccc(O)cc12 [Form A, 1-[4-(2-azepan-1-yl-ethoxy)-benzyl]-2-(4-hydroxy-phenyl)-3-methyl-1H-indol-5-ol acetic acid]	–	–	–	–
0.23 (≈ 0.489 mM)	–	12.4 (≈ 26.3 mM)	Cc1c(-c2ccc(O)cc2)n(Cc2ccc(OCCN3CCCCCC3)cc2)c2ccc(O)cc12 [Form B, 1-[4-(2-azepan-1-yl-ethoxy)-benzyl]-2-(4-hydroxy-phenyl)-3-methyl-1H-indol-5-ol acetic acid]	–	–	–	–
–	–	–	Cc1c(-c2ccc(O)cc2)n(Cc2ccc(OCCN3CCCCCC3)cc2)c2ccc(O)cc12 [bazedoxifene acetate, 1-[4-(2-azepan-1-yl-ethoxy)-benzyl]-2-(4-hydroxy-phenyl)-3-methyl-1H-indol-5-ol acetic acid]	little or no stimulation of uterine response	behaves as an estrogen antagonist	estrogen agonist-like effect in preventing bone loss	reducing cholesterol
